These results are taken from patent US11878050B2, “Glycoside hydrolases to treat biofilm-associated infections” (priority 2018, dated 2024).

Test [1] has as its system bioluminescent P. aeruginosa. As to the kind of experiment: Antibiotic protection and infection clearance in vivo (IVIS). Details: species or system mice.
Procedure: Glycoside hydrolase and antibiotic treatments. Established infections were treated via topical application of vehicle control, heat-inactivated GH, antibiotic alone (or in combination with heat-inactivated GH), GH alone, or GH plus antibiotic (meropenem). Briefly, woundbeds were irrigated with a 10% α-amylase and cellulase (in a 1:1 combination) solution in three separate topical infusions with 30 minutes of dwell time for each, with or without antibiotics. Septicemia was determined by monitoring animals for signs of systemic illness (lethargy, loss of appetite, labored breathing, tremors), and moribund mice were euthanized via phenobarbital injection. […] In order to image dispersal in vivo, the inventors used a Lumina II XR In Vivo Imaging System (IVIS®). Mice with established wound infections were administered GH therapy, and imaging occurred immediately following treatment, and every 4-5 hours subsequently. For experiments involving systemic antibiotic therapy, peritoneal dosing of 300 mg/kg meropenem occurred 4 hours prior to, and 8 hours following GH treatment. […]
To test if concurrent systemic or topical antibiotics can protect against dispersal-mediated septicemia, 48-hour chronic wound infections comprised of bioluminescent P. aeruginosa were treated with 10% GH as above, and monitored via IVIS for systemic spread.
The test system of a further test is biofilms. The settings on record: cited from earlier work; for Summary (biofilm-disrupting ability): Table 1, literature.
Test [2] deals with S. aureus and P. aeruginosa biofilms. The test is described as follows: Crystal violet biomass assay. The format is cell-based. The method, then: Crystal violet assay. A traditional in vitro crystal violet (CV) biomass assay was performed by inoculating the wells of a 24-well non-tissue culture treated plate (Falcon®) containing 13 mm plastic cell culture coverslips with 1:100 dilutions of overnight cultures of S. aureus and P. aeruginosa in fresh LB broth, and allowing for 48 hours of growth at 37° C., with shaking at 80 rpm. Planktonic cells were then removed via rinsing with PBS, and the biofilm-coated coverslips were treated with enzyme solutions, vehicle, or heat-inactivated controls. After treatment, the coverslips were rinsed with ddH2O, and the remaining biomass was stained with 1% CV in ddH2O for 20 minutes. Coverslips were then rinsed once more with ddH2O and transferred to fresh wells, in which the CV was eluted in 95% ethanol for 1 hour. The eluted CV from treated vs. untreated samples was quantified via absorbance of 595 nm light in a Synergy H1 Hybrid Reader (Biotek®).

The test system is the same in test [3]. The test is described as follows: In vitro well-plate cell dispersal assay. The format is cell-based. The settings on record: 5% GH solutions, 30 minutes, vs vehicle and heat-inactivated controls. The method, then: (§1) In vitro cell dispersal. To measure percent dispersal in vitro, the wells of a 24-well non-tissue culture treated plate (Falcon®) were inoculated with 1:100 dilutions of overnight cultures of S. aureus and P. aeruginosa, and biofilms were allowed to grow for 48 hours at 37° C., with shaking at 80 rpm. Following incubation, the supernatant was removed, and each well was gently rinsed with PBS to discard any non-attached biomass. Subsequently, wells were treated with enzyme solutions, vehicle, or heat-inactivated controls. Following treatment, the supernatant was removed and centrifuged at 11,000 rcf for 10 minutes in order to pellet the cells. Cell pellets were then re-suspended in PBS for CFU quantification. Biofilm remaining on the wells were dispersed via sonication and suspended in PBS for CFU quantification. Percent bacterial cell dispersal was calculated by finding the quotient of […].

The test system of test [4] is S. aureus and P. aeruginosa. The test is described as follows: Total CFU after GH treatment in vitro (bactericidal activity). The note with it: 5% GH solutions, 30 minutes. The format is cell-based. Here is the method:
as §1

Test [5] deals with S. aureus and P. aeruginosa polymicrobial biofilms harvested from murine chronic wounds. As to the kind of experiment: Ex vivo treatment of murine chronic wound biofilms: biomass degraded. The format is cell-based. The settings on record: 5% enzyme solutions, 1 hour. An excerpt:
(§2) Murine chronic wound model. A murine chronic wound model has been previously described [Dalton T, Dowd S E, Wolcott R D, Sun Y, Watters C, Griswold J A, et al. An in vivo polymicrobial biofilm wound infection model to study interspecies interactions. PLoS One. 2011; 6(11):e27317. Epub 2011/11/15. Brown R L, Greenhalgh D G. Mouse models to study wound closure and topical treatment of infected wounds in healing-impaired and normal healing hosts. Wound Repair Regen. 1997; 5(2):198-204. Epub 1997/04/01. Rumbaugh K P, Diggle S P, Watters C M, Ross-Gillespie A, Griffin A S, West S A. Quorum sensing and the social evolution of bacterial virulence. Curr Biol. 2009; 19(4):341-5. Epub 2009/02/24, relevant portions incorporated herein by reference]. […] Percent dispersal, percent biomass degraded, and antibiotic tolerance were calculated as with the LWM, described above.
(§3) In order to determine if the results obtained in vitro translated to a more clinically relevant model, the inventors tested the ability of GH solutions to degrade the biomass of, and disperse the cells from, biofilms grown in vivo. […] For analysis of biomass degradation, the inventors measured the weights of the extracted wound-beds before and after treatment with GH, and compared the percent reduction in weight to that of biofilms treated with heat-inactivated GH. […]

For test [6] the test system is unchanged. As to the kind of experiment: Ex vivo treatment of murine chronic wound biofilms: cell dispersal. The class given is cell-based. The settings on record: 5% enzyme solutions, 1 hour, vs vehicle and heat-inactivated controls.
Text: as §2, §3

Test [7] deals with S. aureus and P. aeruginosa biofilms. The test is described as follows: Lubbock Chronic Wound Biofilm Model (wound-like media). The format is cell-based. The source says: Lubbock Chronic Wound Biofilm Model. The Lubbock Chronic Wound Biofilm Model, or Lubbock wound model (LWM), has been previously described [Sun Y, Dowd S E, Smith E, Rhoads D D, Wolcott R D. In vitro multispecies Lubbock chronic wound biofilm model. Wound Repair Regen. 2008; 16(6):805-13. Epub 2009/01/09. DeLeon S, Clinton A, Fowler H, Everett J, Horswill A R, Rumbaugh K P. Synergistic interactions of Pseudomonas aeruginosa and Staphylococcus aureus in an in vitro wound model. Infect Immun. 2014; 82(11):4718-28. Epub 2014/08/27. Dalton T, Dowd S E, Wolcott R D, Sun Y, Watters C, Griswold J A, et al. An in vivo polymicrobial biofilm wound infection model to study interspecies interactions. PLoS One. 2011; 6(11):e27317. Epub 2011/11/15, relevant portions incorporated herein by reference]. Briefly, wound-like media (50% bovine plasma, 45% Bolton broth, 5% laked horse blood) was inoculated with […] bacterial cells, and incubated for 48 hours, statically, at 37° C. […] Percent bacterial cell dispersal was calculated by finding the quotient of […]. Percent biomass degraded was calculated by rinsing to remove the post-treatment supernatant, weighing the remaining biomass, and finding the quotient of the post-treatment biofilm weight divided by the pre-treatment biofilm weight. […]

As for `C[C@@H](O)[C@H]1C(=O)N2C(C(=O)O)=C(S[C@@H]3CN[C@H](C(=O)N(C)C)C3)[C@H](C)[C@H]12` [meropenem], the “protection against GH dispersal-induced dissemination” value in test [1] (systemic meropenem (300 mg/kg) with 10% GH) and in test [1] (topical meropenem (3 mg/ml) with 10% GH) was “prevented dissemination of P. aeruginosa” in each case.
Regarding Hyaluronidase [reference compound], in the test with biofilms, the “Summary (biofilm-disrupting ability)” value is listed as “against HA-containing biofilms, dispersal”.
With cellulase, the “degradation of pre-formed biofilms (crystal violet)” value in test [2] (0.0025%, 10 minutes) is reported as “significantly degraded”. In test [2] (0.25% GH solution, 30 minutes, 48 h biofilms), the “biomass of the biofilms (retention of crystal violet stain)” value is “significant reduction in biomass”. Besides, the percent dispersal entry in test [3] is listed as “significant amount of dispersal”; in test [6], “significantly more total cell dispersal”. The “total CFU (supernatant + biofilm), bactericidal activity” value in test [4] was “no bactericidal activity”. In test [5], the percent biomass degraded entry was “able to degrade”. Further, the “disassociation of biofilms cultured in wound-like media” value in test [7] (10%, 1 hour, 24-hour-old polymicrobial biofilms) is listed as “completely disassociates”. The “Summary (biofilm-disrupting ability)” value in the test on biofilms is recorded as “shown to cause the dispersal of S. aureus”. Further, the “biofilm inhibition / disruption in earlier studies” value in the test with biofilms (literature) was “inhibits biofilm growth by Burkholderia cepacia and Pseudomonas aeruginosa”.
gentamicin sulfate [reference compound]: in test [7] (P. aeruginosa and S. aureus co-cultured in the LWM, gentamicin alone), the “cells remaining viable after gentamicin treatment” value is listed as “approximately half”.
